Measurements taken from article PMC11574108, “4-Furanylvinylquinoline derivative as a new scaffold for the design of oxidative stress initiator and glucose transporter inhibitor drugs” (Scientific Reports, 2024).

Tests used:
HCT 116 p53+/+ = test: Monolayer antiproliferative MTS assay; format: cell-based, human; conditions: 2D monolayer
Text: (§1) The human colon carcinoma cell line HCT 116 with wild-type p53 (p53^+/+) and the human glioblastoma cell line U-251 were obtained from ATCC, while the HCT 116 with a p53 deletion (p53^−/−) was kindly provided by Prof. M. Rusin from the Maria Sklodowska-Curie Memorial Cancer Center and Institute of Oncology in Gliwice, Poland. The human chronic myelogenous leukaemia cell line K562 and the normal human cell dermal fibroblast cell line NHDF were purchased from Sigma-Aldrich and PromoCell, respectively. Both the HCT 116 and U-251 cell lines were cultured in Dulbecco’s modified Eagle’s medium (DMEM) supplemented with 10% inactivated foetal bovine serum (FBS). The DMEM for the NHDF contained 15% non-inactivated FBS. K562 cells were cultured in RPMI medium completed by 10% inactivated FBS. Additionally, the media were supplemented with antibiotics (streptomycin and penicillin – 1% v/v; Sigma-Aldrich). The cell culture was conducted in 75 cm^2 flasks (Nunc) under standard conditions (37 °C, 5% CO2 humidified atmosphere). Furthermore, the cell lines were frequently tested for mycoplasma using the qRT-PCR technique with specific Mycoplasma primers to confirm the lack of contamination.
(§2) The cells were seeded in 96-well plates (Nunc) with 5,000 or 4,000 cells per well for the cancer cells and NHDF, respectively, and incubated under standard conditions at 37 °C overnight. The culture media were then changed for freshly prepared solutions of the tested compounds in various concentrations. After 72-h incubation the antiproliferative assay was carried out as follows: the solutions of the compounds were changed in each well to 100 µL DMEM without phenol red and 20 µL of CellTiter 96 AQueous One Solution-MTS (Promega). The plates were incubated for 1 h at 37 °C, and the absorbance was then measured at 490 nm using a multi-plate reader (Synergy 4, BioTek). The experiment for each sample was repeated at least three times.
(§3) Additionally, the compounds were also tested for their cytotoxicity against normal cells – human dermal fibroblasts (NHDF).

HCT 116 p53-/- = test: Monolayer antiproliferative MTS assay; format: cell-based, human; conditions: 2D monolayer
Text: as §1, §2, §3

NHDF = test: Monolayer MTS cytotoxicity against normal cells; format: cell-based; conditions: NHDF, normal human dermal fibroblasts, 72-h incubation
Text: as §1, §2, §3

U-251 = test: Monolayer antiproliferative MTS assay; format: cell-based, human
Text: as §1
as §2, with “times. The results are presented as the half-maximal inhibitory concentration (IC50) values, which were estimated in comparison to untreated cells (control) and calculated using GraphPad Prism v.8.0 (USA).” for “times.”
(§4) However, the antiproliferative activity of derivative 13 with furan a ring was surprising. […] For this purpose, we selected two pancreatic cancer cell lines: AsPC-1, which is characterised by a deletion of the p53 protein[20] and PANC-1, which carries an R273H mutation. This mutation also occurred in the glioblastoma U-251 cell line[22],[23]. An additional non-adherent line that carries the TP53 mutation that results in the absence of p53 is the K562 leukemic cell line[24]. […] Moreover, 13 was selective toward […], as indicated by its SI values (3.35–9.41). Among all of the tested cell lines, the highest activity of the compound was found against the HCT 116 cells with the wild-type p53 protein (0.069 µM). […] The p53 protein also interacts with the metabolic pathways that are associated with glucose transport[25] as well as small molecules. In light of the above-mentioned facts, we also determined the cytotoxicity of the GLUT inhibitor BAY-876, which is based on a quinoline scaffold. […] Furthermore, BAY-876 was also toxic to normal cells.

AsPC-1 = test: Monolayer antiproliferative MTS assay; format: cell-based, human; conditions: 2D monolayer
Description: as §2, with “times. The results are presented as the half-maximal inhibitory concentration (IC50) values, which were estimated in comparison to untreated cells (control) and calculated using GraphPad Prism v.8.0 (USA).” for “times.”
as §4

PANC-1 = test: Monolayer antiproliferative MTS assay; format: cell-based, human; conditions: 2D monolayer
Description: as §2, with “times. The results are presented as the half-maximal inhibitory concentration (IC50) values, which were estimated in comparison to untreated cells (control) and calculated using GraphPad Prism v.8.0 (USA).” for “times.”
as §4

GLUT-1 = test: qRT-PCR, GLUT-1 mRNA expression; format: cell-based, human; conditions: HCT 116 p53-/-, 24 and 48 h
Description: The cells were seeded in 35 mm Petri dishes at a density of 500,000 cells and incubated at 37 °C for 24 h. The total RNA was isolated after incubation with solutions of 13 (0.5 µM and 1.0 µM) for 24 h and 48 h, respectively. The isolation from the samples was carried out according to a TRIzol™ Reagent protocol (Thermo Fisher Scientific). Synthesis of cDNA was performed with 2 µg of total RNA using a GoScript™ Reverse Transcriptase kit (Promega) with Oligo(dT)23 Primers. Real-Time PCR was carried out using a CFX96 Touch™ Real-Time PCR Detection System (Bio-Rad) in 10 µL reaction volume. Each sample contained SsoAdvanced™ Universal SYBR Green Supermix (Bio Rad), a specific primer pair mix (0.5 µM each), and 1 µL of cDNA. […] The obtained data were analysed based on a comparison of the expression of the target genes and normalized to a reference gene (GAPDH) using the Livak-Schmittgen (2^−ΔΔCT) method. […]
To verify the effect of derivative 13 on glucose transporters at the mRNA level, the expression of the genes encoding the best-characterised glucose transporters in cells was quantified in real-time. In addition to GLUT-1, the effect of the tested derivative on changes in the expression of GLUT-3 and GLUT-4 was also evaluated (Fig. 8). […]

[1] = Homo sapiens, HCT-116, 72 h, MTS, 72-h incubation

SMILES: Cc1c(NC(=O)c2cc(C(N)=O)nc3cc(F)ccc23)c(C(F)(F)F)nn1Cc1ccc(C#N)cc1 [BAY-876]
- SI (selectivity index) HCT 116 p53+/+ (HCT 116 p53+/+; relative to NHDF): 2.53
- IC50 (HCT 116 p53+/+; [1]): 1710 ± 270 nM
- SI (selectivity index) HCT 116 p53-/- (HCT 116 p53-/-; relative to NHDF): 0.40
- IC50 (HCT 116 p53-/-; [1]): 10.8 ± 0.81 µM
- IC50 (NHDF): 4.33 ± 0.48 µM
- SI (selectivity index) U-251 (U-251; 2D monolayer, relative to NHDF): < 0.17
- IC50 (U-251; Homo sapiens, U-251, 72 h, 2D monolayer, MTS, 72-h incubation): > 25 µM
- activity in U-251 (U-251; at 25 µM): not active
- SI (selectivity index) AsPC-1 (AsPC-1; relative to NHDF): 27.06
- IC50 (AsPC-1; Homo sapiens, ASPC1, 72 h, MTS, 72-h incubation): 160 ± 10 nM
- SI (selectivity index) PANC-1 (PANC-1; relative to NHDF): 123.71
- IC50 (PANC-1; Homo sapiens, PANC-1, 72 h, MTS, 72-h incubation): 35 ± 4 nM
- GLUT-1 mRNA level vs control (GLUT-1): increased its expression
